Source: US11136296B2, “Substituted N-arylethyl-2-arylquinoline-4-carboxamides and use thereof” (Bayer Aktiengesellschaft, priority 2017, dated 2021)

Biological target: FP receptor (Homo sapiens (Human), UniProt P43088)
Experiment: In vitro test of inhibition of human FP receptor activity (PGF2α-induced calcium flux in FP-expressing CHEM1 cells)
Format: cell-based
Details: PGF2α-induced (2 nM) calcium flux in FP-expressing CHEM1 cells; some as mean values from multiple determinations
From the text: Table 1 below lists the IC50 values from this assay for individual working examples of the invention (some as mean values from multiple independent individual determinations): […]

Sequence of FP receptor (P43088 whole entry): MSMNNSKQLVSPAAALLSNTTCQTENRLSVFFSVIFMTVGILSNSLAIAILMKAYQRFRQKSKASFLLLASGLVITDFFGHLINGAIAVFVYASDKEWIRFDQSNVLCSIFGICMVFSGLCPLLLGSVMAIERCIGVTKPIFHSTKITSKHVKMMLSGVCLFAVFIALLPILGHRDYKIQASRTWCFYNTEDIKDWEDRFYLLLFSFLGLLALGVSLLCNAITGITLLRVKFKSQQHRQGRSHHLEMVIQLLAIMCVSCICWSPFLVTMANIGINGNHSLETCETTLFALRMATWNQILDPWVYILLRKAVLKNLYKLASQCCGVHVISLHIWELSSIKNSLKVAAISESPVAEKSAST

Structure (SMILES)	IC50 [nM]
Cc1ccc(C(CNC(=O)c2c(C)c(-c3ccccc3)nc3ccc(Br)cc23)CC(=O)O)cc1 (single isomer, unassigned; (+)) [Example 91, (+)-4-{[(6-Bromo-3-methyl-2-phenylquinolin-4-yl)carbonyl]amino}-3-(4-methylphenyl)butanoic Acid]	460
Cc1c(-c2ccccc2)nc2ccc(Br)cc2c1C(=O)NCC(c1ccccc1Cl)C(C)(C)C(=O)O (racemic) [Example 111, (+/−)-4-{[(6-Bromo-3-methyl-2-phenylquinolin-4-yl)carbonyl]amino}-3-(2-chlorophenyl)-2,2-dimethylbutanoic Acid]	89
Cc1c(-c2ccccc2)nc2ccc(Br)cc2c1C(=O)NCC(C)(C(=O)O)c1cccc(C(F)(F)F)c1 (single isomer, unassigned; (-)) [Example 42, (−)-3-{[(6-Bromo-3-methyl-2-phenylquinolin-4-yl)carbonyl]amino}-2-methyl-2-[3-(trifluoromethyl)phenyl]propanoic Acid]	120
Cc1c(-c2ccccc2)nc2ccc(Br)cc2c1C(=O)NCC(c1ccccc1Cl)C(C)(C)C(=O)O (single isomer, unassigned) [Example 112, 4-{[(6-Bromo-3-methyl-2-phenylquinolin-4-yl)carbonyl]amino}-3-(2-chlorophenyl)-2,2-dimethylbutanoic Acid]	92
Cc1c(-c2ccccc2)nc2ccc(Br)cc2c1C(=O)NCC(C)(C(=O)O)c1ccccc1 (racemic) [Example 13, (+/−)-3-{[(6-Bromo-3-methyl-2-phenylquinolin-4-yl)carbonyl]amino}-2-methyl-2-phenylpropanoic Acid]	94
Cc1c(-c2ccccc2)nc2ccc(Br)cc2c1C(=O)NC(C)C(CC(=O)O)c1ccccc1Cl (single isomer, unassigned; (-)) [Example 146, (−)-4-{[(6-Bromo-3-methyl-2-phenylquinolin-4-yl)carbonyl]amino}-3-(2-chlorophenyl)pentanoic Acid]	> 1000
Cc1c(-c2ccccc2)nc2ccc(Br)cc2c1C(=O)NCC(F)(C(=O)O)c1ccccc1 (single isomer, unassigned; (-)) [Example 39, (−)-3-{[(6-Bromo-3-methyl-2-phenylquinolin-4-yl)carbonyl]amino}-2-fluoro-2-phenylpropanoic Acid]	140

The next molecules have a lower IC50 than those just listed; values first:

IC50 [nM]	Structure (SMILES)
13	COc1c(F)cc(F)cc1C(C)(CNC(=O)c1c(C)c(-c2ccccc2)nc2ccc(Br)cc12)CC(=O)O (racemic) [Example 135, (+/−)-4-{[(6-Bromo-3-methyl-2-phenylquinolin-4-yl)carbonyl]amino}-3-(3,5-difluoro-2-methoxyphenyl)-3-methylbutanoic Acid]
47	COc1ccc(F)cc1C(C)(CNC(=O)c1c(C)c(-c2ccccc2)nc2ccc(Br)cc12)CC(=O)O (single isomer, unassigned; (+)) [Example 133, (+)-4-{[(6-Bromo-3-methyl-2-phenylquinolin-4-yl)carbonyl]amino}-3-(5-fluoro-2-methoxyphenyl)-3-methylbutanoic Acid]
74	Cc1c(-c2ccccc2)nc2ccc(Br)cc2c1C(=O)NCC(C)(CC(=O)O)c1ccccc1F (single isomer, unassigned; (-)) [Example 116, (−)-4-{[(6-Bromo-3-methyl-2-phenylquinolin-4-yl)carbonyl]amino}-3-(2-fluorophenyl)-3-methylbutanoic Acid]
7.9	Cc1c(-c2ccccc2)nc2ccc(Br)cc2c1C(=O)NCC(SCC(=O)O)c1ccccc1Cl (racemic) [Example 194, (+/−)-{[2-{[(6-Bromo-3-methyl-2-phenylquinolin-4-yl)carbonyl]amino}-1-(2-chlorophenyl)ethyl]sulfanyl}acetic Acid]
76	Cc1c(-c2ccccc2)nc2ccc(Br)cc2c1C(=O)NCC(C(=O)O)c1cccc(C(F)(F)F)c1 (racemic) [Example 22, (+/−)-3-{[(6-Bromo-3-methyl-2-phenylquinolin-4-yl)carbonyl]amino}-2-[3-(trifluoromethyl)phenyl]propanoic Acid]
